System: NOMO1
Test: cell viability relative to DMSO control; higher = less cytotoxic
Conditions: 48 h
Procedure, shortened: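 Library compounds in DMSO were pin-dosed in an 11-point threefold series (47 μM to 0.79 nM) onto leukemia cells in 1536-well plates (5 μl). Plates held 500 cells/well of NOMO1 or SEM or 1000 cells/well of P12-Ichikawa, each adapted for at least four passages in each medium. Luminescence was read with CellTiter-Glo One after 48 h at 37°C. Viability means the per-plate percentage relative to DMSO wells, using cell-free wells as background.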

[1] = HPLM + 10% dialyzed FBS, 0.000781 µM
[2] = HPLM + 10% dialyzed FBS, 0.00234 µM
[3] = HPLM + 10% dialyzed FBS, 0.00702 µM
[4] = HPLM + 10% dialyzed FBS, 0.0211 µM
[5] = HPLM + 10% dialyzed FBS, 0.0632 µM
[6] = HPLM + 10% dialyzed FBS, 0.19 µM
[7] = HPLM + 10% dialyzed FBS, 0.569 µM
[8] = HPLM + 10% dialyzed FBS, 1.71 µM
[9] = HPLM + 10% dialyzed FBS, 5.12 µM
[10] = HPLM + 10% dialyzed FBS, 15.4 µM
[11] = HPLM + 10% dialyzed FBS, 46.1 µM
[12] = RPMI 5 mM glucose + 10% dialyzed FBS, 0.000781 µM
[13] = RPMI 5 mM glucose + 10% dialyzed FBS, 0.00234 µM
[14] = RPMI 5 mM glucose + 10% dialyzed FBS, 0.00702 µM
[15] = RPMI 5 mM glucose + 10% dialyzed FBS, 0.0211 µM
[16] = RPMI 5 mM glucose + 10% dialyzed FBS, 0.0632 µM
[17] = RPMI 5 mM glucose + 10% dialyzed FBS, 0.19 µM
[18] = RPMI 5 mM glucose + 10% dialyzed FBS, 0.569 µM
[19] = RPMI 5 mM glucose + 10% dialyzed FBS, 1.71 µM
[20] = RPMI 5 mM glucose + 10% dialyzed FBS, 5.12 µM
[21] = RPMI 5 mM glucose + 10% dialyzed FBS, 15.4 µM
[22] = RPMI 5 mM glucose + 10% dialyzed FBS, 46.1 µM
[23] = RPMI 5 mM glucose + 10% FBS, 0.000781 µM
[24] = RPMI 5 mM glucose + 10% FBS, 0.00234 µM
[25] = RPMI 5 mM glucose + 10% FBS, 0.00702 µM
[26] = RPMI 5 mM glucose + 10% FBS, 0.0211 µM
[27] = RPMI 5 mM glucose + 10% FBS, 0.0632 µM
[28] = RPMI 5 mM glucose + 10% FBS, 0.19 µM
[29] = RPMI 5 mM glucose + 10% FBS, 0.569 µM
[30] = RPMI 5 mM glucose + 10% FBS, 1.71 µM
[31] = RPMI 5 mM glucose + 10% FBS, 5.12 µM
[32] = RPMI 5 mM glucose + 10% FBS, 15.4 µM
[33] = RPMI 5 mM glucose + 10% FBS, 46.1 µM

Compound	cell viability [1]	cell viability [2]	cell viability [3]	cell viability [4]	cell viability [5]	cell viability [6]	cell viability [7]	cell viability [8]	cell viability [9]	cell viability [10]	cell viability [11]	cell viability [12]	cell viability [13]	cell viability [14]	cell viability [15]	cell viability [16]	cell viability [17]	cell viability [18]	cell viability [19]	cell viability [20]	cell viability [21]	cell viability [22]	cell viability [23]	cell viability [24]	cell viability [25]	cell viability [26]	cell viability [27]	cell viability [28]	cell viability [29]	cell viability [30]	cell viability [31]	cell viability [32]	cell viability [33]
CN[C@@H]1[C@@H](O)[C@@H](O[C@@H]2[C@@H](O)[C@H](O[C@H]3O[C@H](CN)[C@@H](O)[C@H](O)[C@H]3O)[C@@H](N)C[C@H]2NC(=O)[C@@H](O)CN)OC[C@]1(C)O	120%	132%	115%	135%	148%	130%	140%	110%	113%	103%	120%	130%	115%	110%	127%	112%	132%	116%	107%	99.9%	117%	98.6%											
COc1cc(F)c(F)c(Nc2ccc(I)cc2F)c1N[S+](=O)([O-])C1(C[C@H](O)CO)CC1	111%	119%	117%	113%	116%	113%	101%	113%	99.3%	91.8%	57%	112%	110%	109%	115%	108%	106%	110%	122%	106%	88.8%	71.9%	104%	95.3%	94.9%	99.4%	99.5%	102%	92.5%	111%	93.2%	87.9%	86.5%
CC(C)(C)OC(=O)N[C@H]1CCCCC/C=C\[C@@H]2C[C@@]2(C(=O)N[S+](=O)([O-])C2CC2)NC(=O)[C@@H]2C[C@@H](OC(=O)N3Cc4cccc(F)c4C3)CN2C1=O	125%	115%	124%	114%	108%	121%	103%	120%	114%	111%	111%	97.4%	92.7%	111%	98.5%	110%	100%	123%	109%	104%	90.1%	103%	96.8%	93.3%	97.2%	100%	114%	106%	113%	99.9%	94%	101%	102%
COc1ccc([S+](=O)([O-])N(C(C)=O)c2ccccc2/C=C/c2cc[n+]([O-])cc2)cc1												108%	111%	116%	126%	115%	121%	122%	46.4%	25.3%	26.8%	28.4%	116%	106%	129%	114%	105%	112%	130%	44.5%	21%	24.4%	22.6%
CN(C)C1CCN(C(=O)c2ccc(NC(=O)Nc3nc(N4CCOCC4)nc(N4CCOCC4)n3)cc2)CC1	85.5%	100%	80%	67.8%	60.6%	52.9%	43.1%	44.9%	40.5%	28.7%	25.1%	84.9%	83.8%	83.9%	70.9%	60.8%	53.3%	45.8%	44.4%	39.6%	38%	22.8%	84.8%	89.3%	90.5%	84.5%	64.9%	63.6%	52.7%	49%	43.4%	36.5%	18.2%
CC[C@H](/C=C/[C@@H](C)[C@H]1CC[C@H]2[C@@H]3CC=C4C[C@@H](O)CC[C@]4(C)[C@H]3CC[C@]12C)C(C)C	104%	112%	110%	98.9%	104%	102%	97.3%	96.7%	80.6%	73.7%	58.2%	98.2%	89.4%	91.1%	84.5%	96.1%	89.5%	86%	95.1%	94.5%	68.3%	69.6%	89.3%	94.3%	101%	105%	92.9%	90.7%	88.8%	92.8%	81.1%	81.3%	78.7%
S=C(NCc1ccc2c(c1)OCO2)N1CCN(c2ncnc3c2oc2ccccc23)CC1	110%	113%	124%	104%	105%	98.2%	113%	105%	75.7%	64.1%	9.67%	116%	106%	119%	107%	112%	107%	112%	97.1%	95.8%	89%	48.8%	117%	120%	116%	110%	114%	111%	109%	98.2%	104%	80%	26.2%
Clc1ccc(-c2nc3sccn3c2/C=N/OCc2ccc(Cl)c(Cl)c2)cc1	122%	113%	128%	126%	125%	110%	109%	108%	99.6%	101%	122%	101%	110%	123%	125%	114%	98%	113%	114%	111%	99.8%	111%	121%	114%	117%	120%	112%	109%	101%	104%	117%	103%	108%
COC\1=C(/OC)C(=O)\C(=C(C)/C1=O)CCCCCCCCCCO	97.4%	132%	118%	148%	114%	134%	153%	154%	148%	122%	61.6%																						
CC(C)N[C@@H]1CCn2c(=O)[nH]c3cccc(c32)[C@H]1O																							119%	110%	121%	119%	111%	108%	117%	104%	105%	103%	55.6%
OC[C@@H](O)[C@@H](O)[C@H](O)[C@@H](O)CO	96.4%	116%	129%	133%	131%	131%	130%	132%	129%	123%	135%	102%	112%	99.5%	111%	113%	137%	122%	108%	135%	127%	131%	106%	114%	108%	111%	130%	109%	107%	110%	114%	112%	114%
CC(C)c1nc(CN(C)C(=O)N[C@H](C(=O)N[C@@H](Cc2ccccc2)C[C@H](O)[C@H](Cc2ccccc2)NC(=O)OCc2cncs2)C(C)C)cs1	92.4%	107%	100%	95.3%	89.9%	88.9%	98.5%	70.5%	94.4%	80.7%	74.3%	86.5%	80.7%	93%	90.6%	92.8%	83.2%	81.7%	77.1%	84.9%	79.2%	77.1%	75.3%	75.3%	78.5%	81.2%	77.4%	80.2%	77.6%	79.3%	79.9%	75.7%	79%
CC1(C)O[C@@H]2C[C@H]3[C@@H]4C[C@H](F)C5=CC(=O)C=C[C@]5(C)[C@@]4(F)[C@@H](O)C[C@]3(C)[C@]2(C(=O)CO)O1	105%	112%	121%	122%	121%	101%	101%	118%	112%	108%	94%	109%	109%	98.3%	114%	112%	102%	96.7%	102%	110%	97.8%	86.5%	115%	101%	108%	108%	112%	114%	106%	102%	104%	97.9%	91.7%
CC[S+](=O)([O-])c1cccc(-c2cc(C(=O)NC3CCN(C)CC3)c(C)c3[nH]c4ncc(C)cc4c23)c1	118%	128%	120%	136%	126%	89.9%	115%	68.2%	52.6%	51%	6.96%	124%	122%	130%	128%	138%	87.7%	80.7%	86.8%	80.3%	48.3%	8.02%	114%	115%	114%	135%	128%	111%	77.3%	83.9%	92.6%	47%	8.64%
CNC(=O)c1ccc2cc(C3(O)CCn4cncc43)ccc2c1 (stereo not drawn)	124%	131%	121%	127%	143%	118%	126%	137%	113%	98.1%	112%												105%	117%	103%	120%	110%	96.8%	102%	96.8%	108%	99.7%	114%

Source: the supplement of paper PMC11451515
